Data on one compound can be found in PMC4738305, “Metabolism and Disposition of Aditoprim in Swine, Broilers, Carp and Rats” (Scientific Reports, 2016).

The nature of data set [1]: Concentration and elimination of ADP and its metabolites in liver, kidney, muscle, fat/skin after oral ^3H-ADP for 7 d. It is filed as in vivo, broilers. The following applies: oral. The method, then: (§1) A total of 36 animals from each species (swine n = 24) were randomly assigned to six equal treatment groups and administered a single daily dose of ^3 H-ADP at 5 mg/kg b. w. (0.1 Ci/g) through oral gavage for 7 consecutive days. All the animals were housed on the basis of their group in the cages or aquaria throughout the whole study period. A group of animals was slaughtered through exsanguination under diethyl ether inhalation of anesthesia in the period of 6 h, 1, 3, 7, 14, and 21 d after the administration. The blood samples were immediately collected into the heparinized tubes and was centrifuged at 1920 × g at 4 °C for 10 min to obtain the plasma. The tissues from the heart, liver, spleen, lung, kidney, craw (broilers), stomach, intestine, fat, skin, muscle, thymus, pancreas, bile, bladder, hair (scale for carp), genital gland, adrenal glands, swim bladder (carp), brain, lymph, and bursa (broilers) were carefully excised and collected. The tissues were thoroughly rinsed with the deionized water to remove the residuary blood, blotted to dryness, and finally to perform the homogenization. In order to avoid cross-contamination the dissecting instruments were washed during the tissue procurements. The blank tissues were collected in order to provide control matrices. The total radioactivity levels in each sample were determined through LSC. The samples extracted from the plasma, bile, and tissues of the liver, kidney, muscle, and fat/skin were analyzed through LC/MS-IT-TOF and v. ARC radiometric detection for metabolite profiling. The blank samples were used as control to determine the background radioactivity or the endogenous nondrug-related ions observed within respective matrices or their extracts.
(§2) The feces and tissues (2 g) were diluted with a mixture of methanol and chloroform (1:3, v:v; 2 mL/g homogenate). This procedure was carried out in a fume hood for the safety aspects. The pH value was adjusted to 9.0 with NH4OH. The mixture was vortexed and sonicated for 5 min and 10 min, respectively, and finally the samples were centrifuged at 7690 × g for 10 min. The supernatant was aspirated and then transferred into a new centrifuge tube. The obtained pellet was again subjected to the same process of vortex, ultrasonication, extraction, and centrifugation. The combined supernatant was concentrated under a stream of nitrogen in a water bath at 40 °C. The residue was reconstituted with 0.3 mL of methanol–water (1:9, v:v) before the injection into the LC-v. ARC/MS-IT-TOF system for analysis.
(§3) ADP and its metabolites in the prepared samples were determined with a v. ARC radiometric detector and a hybrid IT/TOF mass spectrometer connected to the HPLC system (Shimadzu Corp., Kyoto, Japan). The LC system was equipped with a solvent delivery pump (LC-20AD), an auto-sampler (SIL-20AC), a degasser (DGU-20 A 3), a photodiode array detector (SPD-M20A), a communication base module (CBM-20 A), and a column oven (CTO-20AC). The chromatographic separation was achieved by using an Agilent extend-C18 column (2.1 mm × 150 mm, 5 μm) with a gradient mobile phase of A (0.01% ammonia and 5 mM ammonium acetate in water) and B (methanol) at a flow rate of 0.2 mL/min. The column temperature was maintained at 35 °C. Various HPLC methods were performed because of the large number of different metabolites to be analyzed. For the porcine sample, method 1 started at 5% B and increased to 20% B over 35 min, then to 55% B by 60 min, followed by re-equilibration for another 10 min. For the remaining samples, method 2 started at 10% B and increased to 60% B over 30 min, subsequently was maintained at 60% B for an additional 10 min, and then changed to 90% B over 2 min and maintained for 2 min. Afterwards, a re-equilibration step (decreased to 10% B over 1 min and maintained at 10% B for additional 9 min) was followed. For each matrix, more than 98% of the radioactivity injected into the column was eluted during the running time of the gradient program. […]

Test in data set [2]: as above
It is filed as in vivo, carp. The following applies: carp, oral. The protocol:
as §1, §2, §3

Test in data set [3]: as above
The class given is in vivo, rats. The following applies: for half-life: po, after 5 mg/kg b. w. for 7 days, read-out: t1/2 of the individual compound (converted); for concentration at 0.25 d / concentration at 1 d / concentration at 3 d: rat, oral. The protocol: as §1, §2, §3

Setting [4] is: broiler chicken, kidney, 5 mg/kg b.w.

Like-named read-outs stand apart in the source and are kept apart here.

`COc1cc(Cc2cnc(N)nc2N)cc(OC)c1N` [A2, N-didesmethyl-ADP]: the concentration at 0.25 d in data set [1] (setting [4]) turned out to be 1200 ± 80 ng/g; in data set [1] (broiler chicken, muscle, 5 mg/kg b.w.), 60 ± 20 ng/g; in data set [1] (broilers, fat, 5 mg/kg b. w.), 30 ± 10 ng/g; in data set [1] (broilers, liver, 5 mg/kg b. w.), 380 ± 50 ng/g; in data set [2] (kidney, 5 mg/kg b.w.), 780 ± 160 ng/g; in data set [2] (liver, 5 mg/kg b. w.) it was 440 ± 60 ng/g. Besides, the concentration at 0.25 d in data set [2] (skin, 5 mg/kg b. w.) came to 70 ± 10 ng/g; in data set [3] (kidney, 5 mg/kg b.w.), 370 ± 130 ng/g; in data set [3] (liver, 5 mg/kg b. w.), 230 ± 60 ng/g; in data set [3] (muscle, 5 mg/kg b.w.), 40 ± 10 ng/g. For the same compound, the concentration at 1 d in data set [1] (setting [4]) turned out to be 550 ± 140 ng/g; in data set [1] (broilers, liver, 5 mg/kg b. w.), 190 ± 50 ng/g; in data set [1] (broilers, muscle, 5 mg/kg b. w.), 10 ng/g; in data set [2] (kidney, 5 mg/kg b.w.), 60 ± 10 ng/g; in data set [2] (liver, 5 mg/kg b. w.), 240 ± 40 ng/g; in data set [2] (skin, 5 mg/kg b. w.), 50 ± 10 ng/g. Moreover, the concentration at 1 d is 120 ± 30 ng/g in data set [3] (kidney, 5 mg/kg b.w.) and 120 ± 20 ng/g in data set [3] (liver, 5 mg/kg b. w.). Moreover, the results for the half-life in data set [3] (rat kidney) and in data set [3] (rat liver) were 16.8 h and 38.6 h, respectively. For the same compound, the concentration at 3 d in data set [3] (kidney, 5 mg/kg b.w.) is 20 ng/g; in data set [3] (liver, 5 mg/kg b. w.) it was 60 ± 20 ng/g.
